Where two headings read alike, the source gives them in different places.
What was measured:
MCF-7 cells = assay: Anti-proliferative assay, standard CCK-8 method; type: cell-based, human; settings: read-out: Proliferative inhibition (IC50, μM) MCF-7
Excerpt: (§1) All reagents and solvents met the criteria of analytical reagents before use. All cancer cell lines (A549, human non-small-cell lung cell line; HT-29, human colonic adenocarcinoma cell line; MCF-7, human breast cancer cell line) were purchased from Stem Cell Bank, Chinese Academy of Sciences. […] ADP-Glo™ kinase assay kits were provided by Promega (Beijing) Biotech Co., Ltd. (Beijing, China). All kinase subtypes were supplied by SignalChem (BC, Canada).
(§2) The designed 4-anilinoquinazoline derivatives were evaluated for their antitumor bioactivities in vitro against three human tumor cell lines (A549, HT-29, and MCF-7) using the standard CCK-8 method. The CCK-8 method is based on WST-8 dye, 2-(2-methoxy-4-nitrophenyl)-3-(4-nitrophenyl)-5-(2,4-disulfophenyl)-2H-tetrazolium. WST-8 can be bio-reduced by dehydrogenases in mitochondria into orange water-soluble formazan products. Briefly, selected cancer cells in the logarithmic growth phase (1 × 10^4) were inoculated in 96-well plates and further cultured in the incubator for 24 h. First, the target compounds were diluted to different concentrations with culture medium with each dilution gradually diluted from the highest concentration solution. Second, the original culture medium was removed after the cells were completely adherent to the wall, and the compounds at various concentrations prepared above were added. In this experiment, a control group and a blank group were set: the former was treated with 0.1% DMSO solution, and the latter was treated with only the culture medium. […] A microplate reader was adopted to record the absorbance at 450 nm, and in this assay, gefitinib, erlotinib, and sorafenib were used as the reference drugs.

HT-29 cells = assay: Anti-proliferative assay, standard CCK-8 method; type: cell-based, human; settings: mean ± SD of at least three independent experiments, read-out: Proliferative inhibition (IC50, μM) HT-29
Excerpt: as §1, §2

A549 cells = assay: Anti-proliferative assay, standard CCK-8 method; type: cell-based, human; settings: mean ± SD of at least three independent experiments, read-out: Proliferative inhibition (IC50, μM) A549
Excerpt: as §1, §2

EGFR = molecular target: T1, EGFR (Homo sapiens, UniProt P00533); assay: EGFR kinase inhibition, ADP-Glo assay; type: biochemical; settings: ADP-Glo; mean ± SD of at least two independent experiments; read-out: Enzymatic inhibition IC50 (nM) EGFR
T1 construct: 2 μl (50 ng/ml) of EGFR kinase
Protocol: The EGFR kinase inhibition activities of the target compounds were evaluated by the ADP-Glo™ assay. The ADP-Glo™ kinase detection kit is a luminescence kinase detection approach that detects the amount of ADP produced by the kinase reaction. After ADP is converted into ATP, ATP can be used as the substrate of the luciferase-catalyzed reaction to generate an optical signal, which is positively correlated with kinase activity. […] The above-prepared systems were sealed and incubated at room temperature for 2 h, and 5 μl of ADP-GLO was added to terminate the kinase reaction. Then, the culture plate was sealed and incubated in a thermostatic oscillator for 40 min to fully consume the remaining ATP. The luciferase/luciferin reaction was adopted to determine the newly generated ATP level.

[1] = test system: A549, HT-29, and MCF-7 cells; assay: Anti-proliferative assay, CCK-8, summaries over all three cell lines; type: cell-based; settings: Homo sapiens, span over A549, HT-29 and MCF-7 cells, read-out: IC50 against the selected cell lines
Excerpt: as §1, §2

[2] = mean ± SD of at least three independent experiments
[3] = Homo sapiens, MCF7, mean ± SD of at least three independent experiments

Compound	IC50 (MCF-7 cells; [2])	IC50 (HT-29 cells)	IC50 (A549 cells)	IC50 (EGFR)	IC50 (MCF-7 cells; [3])	IC50 (HT-29 cells; Homo sapiens)	IC50 (A549 cells; Homo sapiens)	melting point	IC50 [1]
1-(4-chloro-3-(trifluoromethyl) phenyl)-3-(4-((2,3-dimethylphenyl) amino)-3,4-dihydroquinazolin-6-yl) urea [Compound 7n]	3.11 ± 0.3 µM	2.67 ± 1.02 µM	2.67 ± 0.76 µM	–	–	–	–	–	–
1-(4-chloro-3-(trifluoromethyl) phenyl)-3-(4-((2,3-dimethylphenyl) amino)-3,4-dihydroquinazolin-6-yl) urea [Compound 7t]	> 50 µM	48.3 ± 1.9 µM	> 50 µM	728.1 ± 1.65 nM	–	–	–	–	–
O=C(Nc1ccccc1)Nc1ccc2ncnc(Nc3cccc(Br)c3)c2c1 [Compound 7a]	–	–	–	–	15.9 ± 2.28 µM	4.66 ± 0.56 µM	5.81 ± 0.84 µM	250 to 250.9 °C	–
O=C(Nc1ccccc1)Nc1ccc2ncnc(Nc3ccc(Br)cc3F)c2c1 [Compound 7c]	–	–	–	20.1 ± 2.21 nM	8.57 ± 0.27 µM	5.92 ± 1.04 µM	6.16 ± 0.45 µM	256 to 256.8 °C	–
O=C(Nc1ccccc1)Nc1ccc2ncnc(Nc3ccc(F)c(Cl)c3)c2c1 [Compound 7d]	–	–	–	11.8 ± 0.36 nM	44.2 ± 0.97 µM	39.2 ± 2.01 µM	38.65 ± 0.21 µM	233 to 233.7 °C	–
O=C(Nc1ccccc1)Nc1ccc2ncnc(Nc3ccc(F)cc3)c2c1 [Compound 7f]	–	–	–	11.7 ± 0.79 nM	44.3 ± 1.12 µM	48.3 ± 0.78 µM	> 50 µM	252.8 to 253.5 °C	–
Cc1cccc(Nc2ncnc3ccc(NC(=O)Nc4ccccc4)cc23)c1C [Compound 7h]	–	–	–	19.7 ± 1.87 nM	> 50 µM	> 50 µM	> 50 µM	242.8 to 243.7 °C	> 50 µM
O=C(Nc1ccc(Cl)c(C(F)(F)F)c1)Nc1ccc2ncnc(Nc3ccc(Br)cc3)c2c1 [Compound 7k]	–	–	–	–	3.54 ± 0.07 µM	2.3 ± 0.5 µM	2.79 ± 0.44 µM	269.8 to 271.1 °C	–
Cc1ccc(NC2NC=Nc3ccc(NC(=O)Nc4ccc(Cl)c(C(F)(F)F)c4)cc32)cc1 (stereo not drawn) [Compound 7m, 1-(4-chloro-3-(trifluoromethyl)phenyl)-3-(4-(p-tolylamino)-3,4-dihydroquina-zolin-6-yl) urea]	5.53 ± 0.39 µM	2.61 ± 1.25 µM	5.6 ± 0.31 µM	–	–	–	–	–	–
Cc1ccc(Nc2ncnc3ccc(NC(=O)Nc4ccc(F)cc4)cc23)cc1 [Compound 7o]	–	–	–	123.9 ± 1.09 nM	33.7 ± 10.1 µM	7.83 ± 0.97 µM	35.3 ± 0.57 µM	247.2 to 248.4 °C	–
COc1ccc(NC(=O)Nc2ccc3ncnc(Nc4cccc(C)c4C)c3c2)cc1 [Compound 7p]	–	–	–	58.1 ± 1.99 nM	40.2 ± 2.13 µM	11.1 ± 0.39 µM	9.34 ± 0.73 µM	241.1 to 242.7 °C	–
COc1ccc(NC(=O)Nc2ccc3ncnc(Nc4ccc(Br)cc4)c3c2)cc1 [Compound 7q]	–	–	–	470.4 ± 1.28 nM	17.9 ± 0.89 µM	36.96 ± 0.17 µM	5.21 ± 0.3 µM	267.1 to 268.2 °C	–
COc1ccc(NC(=O)Nc2ccc3ncnc(Nc4ccc(F)cc4)c3c2)cc1 [Compound 7r]	–	–	–	59.7 ± 1.31 nM	46.1 ± 1.98 µM	48.21 ± 0.23 µM	> 50 µM	250.2 to 251.8 °C	–
COc1ccc(NC(=O)Nc2ccc3ncnc(Nc4ccc(C)cc4)c3c2)cc1 [Compound 7s]	–	–	–	108 ± 2.64 nM	47.6 ± 0.76 µM	46.2 ± 0.57 µM	> 50 µM	259.5 to 260.1 °C	–
C#Cc1cccc(Nc2ncnc3cc(OCCOC)c(OCCOC)cc23)c1 [Erlotinib, erlotinib, reference compound]	–	–	–	–	11.4 ± 0.43 µM	22.8 ± 1.12 µM	23.2 ± 0.51 µM	–	1.84 to 23.2 µM
CNC(=O)c1cc(Oc2ccc(NC(=O)Nc3ccc(Cl)c(C(F)(F)F)c3)cc2)ccn1 [Sorafenib, sorafenib, reference compound]	–	–	–	–	3.47 ± 0.39 µM	2.27 ± 0.43 µM	1.84 ± 0.17 µM	–	1.84 to 23.2 µM

Reference: paper PMC8187944, “Discovery of Potent EGFR Inhibitors With 6-Arylureido-4-anilinoquinazoline Derivatives” (Frontiers in Pharmacology, 2021)
